Test results: patent US20260000645A1, “USE OF EBSELEN OR ONE OF THE DERIVATIVES THEREOF TO TREAT MITOCHONDRIAL PATHOLOGIES OR DYSFUNCTIONS” (ASSOCIATION FRANCAISE CONTRE LES MYOPATHIES, priority 2022, published 2026)

What was measured:
[1] = test system: mutant yeast strains (cox2, sym1, fmc1, atp6, taz1, shy1, A29G); test: Halos test: respiratory growth of mutant yeast strains on non-fermentable solid medium; type: cell-based, Saccharomyces cerevisiae; conditions: 30 and 90 nmoles on filter, 28° C. or 36° C., 4 to 5 days
Description: Each of the strains of the yeast Saccharomyces cerevisiae used in these examples contain different specific mutations modeling human mutations leading to mitochondrial illnesses. At varying degrees, all these mutant yeast strains have a growth defect when cultivated on a respiratory medium such as ethanol or glycerol at 28° C. or 36° C. (depending on the strain).
• fmc: MC6 MATa ade2-1 his3-11,15 trp1-1 leu2-3,112 ura3-I fmc1: :HIS3 [Δi ER OR] (Schwimmer, C. et al. (2005) J Biol Chem, 280, 30751-30759) for the first screening • MR14 MATa ade2-1 his3-11,15 trp1-1 leu2-3,112 ura3-1 CAN1 arg8::HIS3 ρ+ atp6-L173R or RKY20MATa ade2-1 his3-11,15 trp1-1 leu2-3,112 ura3-1 CAN1 arg8::HIS3 ρ+ atp6-L173P (Rak, M. et al. (2007) J Biol Chem, 282, 34039-34047) for the second screening • taz1Δ: this strain was produced by substituting the open reading framework of TAZ1 by that of TRP1 in the strain W303-1A (MATa ade2-1 ura3-1 his311, 15 trp1-1 leu2-3, 112 can1-100) (from Taffin de Tilques, M. et al. (2017) Dis Model Mech, 10, 439-450) • shy1-G137R: this mutant was produced in the strain CW252 containing the nuclear base of W303 and a mitochondrial gene lacking intron. […]

mutant yeast strain sym1 = test: Cellular respiration (OROBOROS oxygraph) in sym1; type: cell-based, Saccharomyces cerevisiae; conditions: EBS 1 μM, compared to non-treated cells
Description: Respiratory intensity corresponds to the amount of oxygen consumed with respect to time and the number of cells. It reflects the mitochondrial oxidative metabolism of the cells. The consumption of oxygen was measured using the OROBOROS oxygraph system. The cells were cultivated over 7-8 generations at 28° C. for 24 to 48 h in an Ethanol YPA medium supplemented by DMSO or EBS (1 μM). 10^7 cells were introduced into the oxygraph. The consumption of O2 was recorded with or without CCCP (maximum rate of oxygen consumption). The rate of O2 consumption was calculated on the basis of the linear part of the O2 consumption.
The experiments described in example 2 were implemented on the mutant yeast strain sym1.
The data are the averages ±SEM of at least three independent experiments. The significance of the variations between samples and the controls were estimated using the multi-factorial Anova: Tukey test.

[2] = test system: fibroblast lines of patients carrying mutations of the nuclear gene NDUFV1; test: Mitochondrial respiration of NDUFV1 patient fibroblasts (Seahorse XF96); type: cell-based, human; conditions: 48 h exposure
Description: EBS was also tested for the ability thereof to restore mitochondrial respiration of fibroblast lines of patients carrying mutations of the nuclear gene NDUFV1 of mitochondrial complex I. The human lines NDUFV1 mimicking the human illnesses related to a mitochondrial deficit of complex I (Leigh's syndrome) are carriers of genetic mutations affecting the gene NDUFV1. These cell lines were cultivated in a DMEM medium containing 1.0 g/L of glucose and 1 mM of sodium pyruvate and 50 μg/ml of uridine (Sigma Aldrich, Lyon, France).
The respiration was measured using a Seahorse XF96 extracellular flow metabolic analyzer in 96 well plates according to the manufacturer's protocol (Agilent Technologies). Deficient cells were exposed for 48 h to different concentrations with a dose response curve associating a range of concentrations from 25 nM to 10 μM. […]
The measurement of the oxygen consumption rate (OCR) was recorded under basal conditions to evaluate the mitochondrial respiratory activity and then the cells were treated sequentially with 4 μg/mL of oligomycin and 1.5 μM of carbonyl cyanide p-(trifluoromethoxy) phenylhydrazone (FCCP) (Sigma-Aldrich). The basal OCR, the respiration related to ATP, the maximum respiratory capacity and the respiration by proton leak were determined. […] Maximum respiratory capacity has been determined as the rate of respiration in the presence of uncoupling FCCP. […]

## O=c1c2ccccc2[se]n1-c1ccccc1 [ebselen, 2-phenyl-1,2-benzisoselenazol-3(2H)-one]
[1]
  respiratory growth (halo of improved growth): active on all the mutant strains of yeast tested in a dose dependent manner
Mutant yeast strain sym1
  cell respiration: increased
[2]
  toxic concentration: > 10 µM
